A word on the pIC50: it is the negative decadic logarithm of the IC50, by convention in mol/L. As a reminder, the pKi is the negative decadic logarithm of the Ki, by convention in mol/L. The low end stands for a high Ki, the high end for a low Ki.

Structures are written as SMILES. pIC50, pKi: −log10 of the molar value. Where only a bound is given, the exact number is not on record here.

Data set [1] deals with phosphorylation of Chk1 (Ser 345) in HT29 colon adenocarcinoma cells. Briefly: pCHK1 cellular assay. It counts as cell-based. To be noted: Homo sapiens, HT-29, hydroxyurea 3 mM, 4 h. In a few lines: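 HT29 cells plated ≥20 h, then compound (1 nM–30 μM final) with hydroxyurea (3 mM final) added together for 4 h at 37 °C. After MeOH/Triton fixation-permeabilisation, anti-pChk1 immunostaining plus nuclear stain; nuclear pChk1 imaged by confocal high content reader, reported as % positive nuclei.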

Another data set concerns the target ATR/ATRIP (Homo sapiens (Human), UniProt Q13535). In words: ATR/ATRIP kinase assay (TR-FRET, p53 Ser15 phosphorylation). The note with it: 0.5 μM ATP, 50 nM p53. Type of data set: biochemical. In a few lines: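 Full-length human ATR/ATRIP co-expressed in mammalian cells (typically 0.3 nM) preincubated with compound 15 min at 22° C, then 50 nM cmyc-p53 and 0.5 μM ATP added for typically 25 min; HEPES pH 8.0 with Mg2+/Mn2+. p53 Ser15 phosphorylation read by HTRF (665/615 ratio); IC50 by nonlinear regression.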

In data set [2] the target is Kv11.1 (hERG) ion channel (Homo sapiens (Human), UniProt Q12809). In words: Kv11.1 (hERG) ion channel activity, whole cell patch clamp in HEK293. It counts as cell-based. The note with it: for pKi: heading: hERG Ki, HEK293 cells stably expressing hERG, patch clamp. The procedure: Kv11.1 (hERG) Ion Channel Activity
Kv11.1 (hERG) ion channel, sequence (Q12809 whole entry): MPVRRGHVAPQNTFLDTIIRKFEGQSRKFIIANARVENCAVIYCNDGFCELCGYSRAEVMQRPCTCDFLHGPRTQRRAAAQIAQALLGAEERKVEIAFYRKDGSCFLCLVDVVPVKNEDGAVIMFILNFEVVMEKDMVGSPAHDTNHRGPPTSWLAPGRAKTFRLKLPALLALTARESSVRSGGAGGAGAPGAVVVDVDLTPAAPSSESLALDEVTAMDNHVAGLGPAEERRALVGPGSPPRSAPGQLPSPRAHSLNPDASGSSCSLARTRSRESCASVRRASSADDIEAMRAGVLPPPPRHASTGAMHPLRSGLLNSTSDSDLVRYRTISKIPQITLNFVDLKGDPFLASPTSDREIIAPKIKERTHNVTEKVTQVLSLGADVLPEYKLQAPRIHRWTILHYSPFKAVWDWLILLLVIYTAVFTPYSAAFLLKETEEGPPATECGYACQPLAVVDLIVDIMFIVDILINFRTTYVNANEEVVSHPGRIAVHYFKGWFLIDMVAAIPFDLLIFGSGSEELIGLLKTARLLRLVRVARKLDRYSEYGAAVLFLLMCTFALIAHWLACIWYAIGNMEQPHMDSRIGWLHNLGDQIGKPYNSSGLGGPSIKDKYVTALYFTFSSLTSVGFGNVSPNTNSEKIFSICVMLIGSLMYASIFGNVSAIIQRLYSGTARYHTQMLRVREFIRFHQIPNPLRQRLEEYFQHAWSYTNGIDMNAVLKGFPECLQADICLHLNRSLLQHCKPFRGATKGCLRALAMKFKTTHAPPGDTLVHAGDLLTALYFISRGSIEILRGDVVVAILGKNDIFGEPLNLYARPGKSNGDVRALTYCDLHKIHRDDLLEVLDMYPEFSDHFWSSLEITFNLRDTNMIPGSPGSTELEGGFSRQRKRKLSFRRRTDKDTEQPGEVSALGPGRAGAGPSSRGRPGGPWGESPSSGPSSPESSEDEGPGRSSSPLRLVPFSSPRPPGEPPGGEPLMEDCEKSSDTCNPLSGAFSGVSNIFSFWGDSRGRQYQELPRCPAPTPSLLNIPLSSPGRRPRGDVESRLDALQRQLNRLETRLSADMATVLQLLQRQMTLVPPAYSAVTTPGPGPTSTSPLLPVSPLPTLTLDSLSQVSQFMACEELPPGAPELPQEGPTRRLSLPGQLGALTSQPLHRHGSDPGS
In this assay, a potential in vitro effect of test compounds on the Kv11.1 (hERG) ion channel current is investigated which mediates the rapidly activating, delayed rectifier cardiac potassium current (IKr). The assay is performed with a stable Kv11.1 (hERG) transfected human embryonic kidney cell line (HEK293) by whole cell patch clamp technique carried out at room temperature.
The Kv11.1 (hERG) ion channel blocker quinidine is used as reference compound. The effects of the test compounds and quinidine are normalized to the corresponding vehicle control. The whole cell recordings are carried out with an automated patch clamp device Patchliner™, Nanion Technologies, Munich). Hereby the Patch Clamp measurements run on silicate-coated chips with a hole of a defined diameter. Solutions, cell suspension and compounds are applied by a Teflon-laminated pipette needle through microfluidic silicate-laminated channels. Commercial patch clamp amplifiers (EPC10, HEKA Elektronik Dr. Schulze GmbH, Germany) are used for the patch clamp recordings. HEK293 cells stably expressing the hERG gene are held at −80 mV. Steady-state inhibition of Kv11.1 (hERG) potassium current due to test/reference compound application is measured using a pulse pattern with fixed amplitudes: 51 ms/−80 mV, 500 ms/+40 mV, 500 ms/−40 mV, 200 ms/−80 mV. The hERG-specific voltage protocol is repeated at 10 s intervals. The leak current is subtracted by a P4 leak subtraction. Cells are resuspended in extracellular patch clamp solution (EC) and applied into the chip. After trapping the cell, the EC is exchanged by seal enhancer solution (SE) to improve the sealing procedure. When the whole cell configuration is attained, seal enhancer is washed out by the application of EC. The recording is started in EC for 1.5 min. Afterwards DMSO (vehicle control, 0.1% DMSO) is applied and the control current is measured for 3 min. Following control steady-state current, test compound is applied twice at the same concentration and the tail current is measured for 3.5 min each. For the determination of a concentration-relationship, the test compound is applied as a cumulative concentration-response curve and each concentration is measured for 5 min. The reference compound quinidine is treated in the same way. The effect on Kv11.1 (hERG) ion channel activity is judged from the tail current amplitude monitored at −40 mV (current of interest, COI). Results are calculated from the last recorded current traces. Changes in Kv11.1 (hERG) ion channel activity between control value, defined as 100% Kv11.1 (hERG) ion channel activity, application of test compound and application of quinidine is reported as percent change of control value of COI. An aliquot of test compound is collected for concentration verification during the recording. The sample is immediately measured by HPLC and the final compound concentration within the assay is calculated according to a calibration curve.
(Block of hERG is tested as a sign of cardiac risk.)

ATR/ATRIP, sequence (Q13535 whole entry): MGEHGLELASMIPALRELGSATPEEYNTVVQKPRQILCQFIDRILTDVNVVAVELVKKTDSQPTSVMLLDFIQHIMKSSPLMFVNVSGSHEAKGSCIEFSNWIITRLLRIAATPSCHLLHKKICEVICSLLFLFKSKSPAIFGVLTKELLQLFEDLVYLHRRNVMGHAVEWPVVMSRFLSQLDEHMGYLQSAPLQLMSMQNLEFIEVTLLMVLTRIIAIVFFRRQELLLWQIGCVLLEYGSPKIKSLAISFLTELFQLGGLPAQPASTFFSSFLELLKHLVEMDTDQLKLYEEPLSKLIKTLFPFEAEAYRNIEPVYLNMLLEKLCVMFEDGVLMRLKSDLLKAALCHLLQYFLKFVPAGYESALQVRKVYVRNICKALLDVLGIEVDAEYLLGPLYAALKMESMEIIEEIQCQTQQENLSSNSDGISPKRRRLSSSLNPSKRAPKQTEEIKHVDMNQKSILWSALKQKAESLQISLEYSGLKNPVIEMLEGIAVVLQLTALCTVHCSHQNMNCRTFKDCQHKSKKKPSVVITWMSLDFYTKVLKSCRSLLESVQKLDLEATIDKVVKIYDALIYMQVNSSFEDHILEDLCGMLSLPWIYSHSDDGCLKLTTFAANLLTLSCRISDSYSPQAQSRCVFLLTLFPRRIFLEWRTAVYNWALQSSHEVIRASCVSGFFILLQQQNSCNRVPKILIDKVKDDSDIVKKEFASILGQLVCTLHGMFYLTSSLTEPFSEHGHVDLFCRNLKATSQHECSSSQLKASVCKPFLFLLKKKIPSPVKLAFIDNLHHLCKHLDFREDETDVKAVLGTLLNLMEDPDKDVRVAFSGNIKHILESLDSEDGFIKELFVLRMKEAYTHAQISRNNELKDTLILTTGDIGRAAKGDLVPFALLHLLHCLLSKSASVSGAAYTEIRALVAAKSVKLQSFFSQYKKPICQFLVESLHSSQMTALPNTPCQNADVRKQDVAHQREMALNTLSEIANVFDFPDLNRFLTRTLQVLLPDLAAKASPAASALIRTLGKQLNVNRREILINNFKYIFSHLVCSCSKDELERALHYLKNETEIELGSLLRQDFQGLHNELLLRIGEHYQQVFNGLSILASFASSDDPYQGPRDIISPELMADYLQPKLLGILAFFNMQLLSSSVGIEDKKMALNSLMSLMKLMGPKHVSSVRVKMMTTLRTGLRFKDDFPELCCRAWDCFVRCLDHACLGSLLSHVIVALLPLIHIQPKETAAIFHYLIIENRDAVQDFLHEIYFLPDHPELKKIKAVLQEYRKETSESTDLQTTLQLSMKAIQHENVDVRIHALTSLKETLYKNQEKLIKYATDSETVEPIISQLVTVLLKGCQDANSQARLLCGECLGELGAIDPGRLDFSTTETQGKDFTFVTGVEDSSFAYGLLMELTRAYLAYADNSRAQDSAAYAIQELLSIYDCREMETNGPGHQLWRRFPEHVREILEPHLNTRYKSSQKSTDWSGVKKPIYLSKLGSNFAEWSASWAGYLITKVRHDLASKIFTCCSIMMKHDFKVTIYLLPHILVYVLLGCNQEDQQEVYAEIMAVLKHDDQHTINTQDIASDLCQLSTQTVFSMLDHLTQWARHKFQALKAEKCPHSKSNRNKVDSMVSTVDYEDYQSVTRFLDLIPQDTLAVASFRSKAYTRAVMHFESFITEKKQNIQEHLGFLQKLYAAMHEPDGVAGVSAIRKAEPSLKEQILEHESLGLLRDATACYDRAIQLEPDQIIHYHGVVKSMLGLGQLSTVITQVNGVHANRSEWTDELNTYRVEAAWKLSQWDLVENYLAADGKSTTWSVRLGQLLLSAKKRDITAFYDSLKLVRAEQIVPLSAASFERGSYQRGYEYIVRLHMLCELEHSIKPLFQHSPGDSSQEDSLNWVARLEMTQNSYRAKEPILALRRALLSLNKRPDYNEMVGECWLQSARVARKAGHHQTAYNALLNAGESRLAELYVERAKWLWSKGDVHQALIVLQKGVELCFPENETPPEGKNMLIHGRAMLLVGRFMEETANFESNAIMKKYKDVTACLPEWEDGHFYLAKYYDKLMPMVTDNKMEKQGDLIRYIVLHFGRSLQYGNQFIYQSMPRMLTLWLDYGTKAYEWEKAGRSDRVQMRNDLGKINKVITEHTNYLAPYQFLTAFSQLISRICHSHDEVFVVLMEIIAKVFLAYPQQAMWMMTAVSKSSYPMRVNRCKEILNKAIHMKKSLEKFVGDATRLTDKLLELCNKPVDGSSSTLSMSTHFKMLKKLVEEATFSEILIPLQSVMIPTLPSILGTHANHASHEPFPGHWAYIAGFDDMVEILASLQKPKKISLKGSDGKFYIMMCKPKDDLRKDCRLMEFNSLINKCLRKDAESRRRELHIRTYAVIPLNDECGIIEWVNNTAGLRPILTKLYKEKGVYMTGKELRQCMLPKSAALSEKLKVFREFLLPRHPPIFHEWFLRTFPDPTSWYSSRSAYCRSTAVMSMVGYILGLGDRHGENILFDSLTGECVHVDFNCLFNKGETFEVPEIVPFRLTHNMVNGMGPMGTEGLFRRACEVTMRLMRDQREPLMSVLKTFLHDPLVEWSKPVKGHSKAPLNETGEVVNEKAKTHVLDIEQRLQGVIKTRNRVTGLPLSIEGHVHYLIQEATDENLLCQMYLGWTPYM
ATR/ATRIP, sequence (Q8WXE1 whole entry partner): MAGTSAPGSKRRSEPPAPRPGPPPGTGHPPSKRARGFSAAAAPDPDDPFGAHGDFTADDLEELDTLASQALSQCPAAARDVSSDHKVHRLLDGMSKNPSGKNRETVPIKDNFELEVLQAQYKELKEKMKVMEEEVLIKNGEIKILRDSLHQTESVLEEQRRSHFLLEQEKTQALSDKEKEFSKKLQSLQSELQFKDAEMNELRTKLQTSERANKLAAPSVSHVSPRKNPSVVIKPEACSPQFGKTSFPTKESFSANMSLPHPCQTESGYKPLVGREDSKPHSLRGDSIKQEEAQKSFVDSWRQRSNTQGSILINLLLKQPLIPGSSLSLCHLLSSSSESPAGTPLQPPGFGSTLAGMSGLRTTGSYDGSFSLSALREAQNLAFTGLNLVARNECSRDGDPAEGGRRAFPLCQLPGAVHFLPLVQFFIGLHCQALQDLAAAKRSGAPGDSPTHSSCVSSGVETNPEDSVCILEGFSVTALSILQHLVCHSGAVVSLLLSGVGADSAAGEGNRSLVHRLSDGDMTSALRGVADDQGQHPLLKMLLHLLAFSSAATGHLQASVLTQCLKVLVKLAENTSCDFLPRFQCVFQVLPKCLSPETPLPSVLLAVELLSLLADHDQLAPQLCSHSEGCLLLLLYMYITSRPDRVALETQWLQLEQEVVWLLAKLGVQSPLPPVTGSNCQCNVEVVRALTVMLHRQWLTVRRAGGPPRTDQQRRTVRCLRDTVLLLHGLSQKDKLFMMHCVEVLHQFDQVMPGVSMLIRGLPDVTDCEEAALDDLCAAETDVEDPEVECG

`C[C@@H]1COCCN1c1cc(-c2cncn2C)c2c(n1)c(-c1cc[nH]n1)nn2C` [Compound 42, 1-Methyl-7-(3-methyl-3H-imidazol-4-yl)-5-((R)-3-methyl-morpholin-4-yl)-3-(1H-pyrazol-3-yl)-1H-pyrazolo[4,3-b]pyridine]: the negative logarithm of the IC50 (pIC50) in data set [1] is above 8.00; at ATR/ATRIP it was 9.52. Further, the “hERG % effect @ conc” value in data set [2] (@ 30 μM) is listed as −26%. Also, the pKi in data set [2] was below 4.52.
As for `Cc1ccc(-c2cc(N3CCOC[C@H]3C)nc3c(-c4cc[nH]n4)n[nH]c23)cn1` [Compound 2, 5-((R)-3-Methyl-morpholin-4-yl)-7-(6-methyl-pyridin-3-yl)-3-(1H-pyrazol-3-yl)-1H-pyrazolo[4,3-b]pyridine], the negative logarithm of the IC50 (pIC50) in data set [1] was 7.00 to 8.00; against ATR/ATRIP, 9.10. Further, the “hERG % effect @ conc” value in data set [2] (@ 10 μM) was −3%. Moreover, the pKi in data set [2] is below 5.00.
The like results for `C[C@@H]1COCCN1c1cc(C2CCCOC2)c2c(n1)c(-c1ccn[nH]1)nn2C` (stereo partly drawn) [Compound 67, 1-Methyl-5-((R)-3-methyl-morpholin-4-yl)-3-(2H-pyrazol-3-yl)-7-(tetrahydro-pyran-3-yl)-1H-pyrazolo[4,3-b]pyridine] were, in that order, 7.00 to 8.00, 9.10, −12% and below 5.00.
As to `C[C@@H]1COCCN1c1cc(C(C)(C)O)c2c(n1)c(-c1cc[nH]n1)nn2C` [Compound 25, 2-[1-Methyl-5-((R)-3-methyl-morpholin-4-yl)-3-(1H-pyrazol-3-yl)-1H-pyrazolo[4,3-b]pyridin-7-yl]-propan-2-ol], the pIC50 in data set [1] is 7.00 to 8.00; against ATR/ATRIP, 8.37. Moreover, the “hERG % effect @ conc” value in data set [2] (@ 10 μM) is given as −1%. This molecule also gave a pKi in data set [2] below 5.00.
The like results for `Cc1nc(S(C)(=O)=O)ccc1-c1cc(N2CCOC[C@H]2C)nc2c(-c3cc[nH]n3)nn(C)c12` [Compound 11, (3R)-4-[7-(6-Methanesulfonyl-2-methylpyridin-3-yl)-1-methyl-3-(1H-pyrazol-3-yl)-1H-pyrazolo[4,3-b]pyridin-5-yl]-3-methylmorpholine] were, in that order, 7.00 to 8.00, 9.05, −5% and below 5.00.
Regarding `CC(C)n1cc(-c2cc(N3CCOC[C@H]3C)nc3c(-c4cc[nH]n4)nn(C)c23)cn1` [Compound 18, 7-(1-Isopropyl-1H-pyrazol-4-yl)-1-methyl-5-((R)-3-methyl-morpholin-4-yl)-3-(1H-pyrazol-3-yl)-1H-pyrazolo[4,3-b]pyridine], the pIC50 in data set [1] was 6.00 to 7.00; on ATR/ATRIP, 8.21. Besides, the “hERG % effect @ conc” value in data set [2] (@ 10 μM) is on record as −14%. This molecule had a pKi in data set [2] below 5.00.
Regarding `Cc1cc(S(C)(=O)=O)ccc1-c1cc(N2CCOC[C@H]2C)nc2c(-c3cc[nH]n3)nn(C)c12` [Compound 50, (3R)-4-[7-(4-Methanesulfonyl-2-methylphenyl)-1-methyl-3-(1H-pyrazol-3-yl)-1H-pyrazolo[4,3-b]pyridin-5-yl]-3-methylmorpholine], the pIC50 was above 8.00 in data set [1] and 8.89 at ATR/ATRIP. The “hERG % effect @ conc” value in data set [2] (@ 10 μM) is −17%. This molecule had a pKi in data set [2] below 5.00.
As to `C[C@@H]1COCCN1c1cc(C2=CCOCC2)c2c(n1)c(-c1cc[nH]n1)nn2C` [Compound 54, (3R)-4-[7-(3,6-Dihydro-2H-pyran-4-yl)-1-methyl-3-(1H-pyrazol-3-yl)-1H-pyrazolo[4,3-b]pyridin-5-yl]-3-methylmorpholine], the pIC50 was 7.00 to 8.00 in data set [1] and 8.66 on ATR/ATRIP. In data set [2] (@ 10 μM), the “hERG % effect @ conc” value is −2%. The same molecule had a pKi in data set [2] below 5.00.
`Cc1ncccc1-c1cc(N2CCOC[C@H]2C)nc2c(-c3cc[nH]n3)nn(C)c12` [Compound 4, 1-Methyl-5-((R)-3-methyl-morpholin-4-yl)-7-(2-methyl-pyridin-3-yl)-3-(1H-pyrazol-3-yl)-1H-pyrazolo[4,3-b]pyridine]: the pIC50 was 7.00 to 8.00 in data set [1] and 9.10 against ATR/ATRIP. Besides, the “hERG % effect @ conc” value in data set [2] (@ 10 μM) was −12%. For the same molecule, the pKi in data set [2] was below 5.00.
`Cc1nc([S+](C)[O-])ccc1-c1cc(N2CCOC[C@H]2C)nc2c(-c3cc[nH]n3)nn(C)c12` (stereo partly drawn) [Compound 8, 7-(6-Methanesulfinyl-2-methyl-pyridin-3-yl)-1-methyl-5-((R)-3-methyl-morpholin-4-yl)-3-(1H-pyrazol-3-yl)-1H-pyrazolo[4,3-b]pyridine]: the negative-log IC50 (pIC50) in data set [1] is above 8.00; against ATR/ATRIP, 8.68. For the same molecule, the “hERG % effect @ conc” value in data set [2] (@ 10 μM) was −6%. In data set [2], this molecule gave a negative-log Ki (pKi) below 5.00.
The like results for `C[C@@H]1COCCN1c1cc(-c2ccncc2F)c2c(n1)c(-c1cc[nH]n1)nn2C` [Compound 20, 7-(3-Fluoro-pyridin-4-yl)-1-methyl-5-((R)-3-methyl-morpholin-4-yl)-3-(1H-pyrazol-3-yl)-1H-pyrazolo[4,3-b]pyridine] were, in that order, 7.00 to 8.00, 8.92, −11% and below 5.00.
In the same order, the values of `C[C@@H]1COCCN1c1cc(C2CCOC2)c2c(n1)c(-c1ccn[nH]1)nn2C` (stereo partly drawn) [Compound 70, 1-Methyl-5-((R)-3-methyl-morpholin-4-yl)-3-(2H-pyrazol-3-yl)-7-(tetrahydro-furan-3-yl)-1H-pyrazolo[4,3-b]pyridine] are 7.00 to 8.00, 8.66, −20% and below 5.00.
The like results for `C[C@@H]1COCCN1c1cc(-c2ccnn2CCF)c2c(n1)c(-c1cc[nH]n1)nn2C` [Compound 36, 7-[2-(2-Fluoro-ethyl)-2H-pyrazol-3-yl]-1-methyl-5-((R)-3-methyl-morpholin-4-yl)-3-(1H-pyrazol-3-yl)-1H-pyrazolo[4,3-b]pyridine] were, in that order, 7.00 to 8.00, 9.22, −9% and below 5.00.
As to `Cc1cc(S(C)(=O)=O)ncc1-c1cc(N2CCOC[C@H]2C)nc2c(-c3cc[nH]n3)nn(C)c12` [Compound 17, 7-(6-Methanesulfonyl-4-methyl-pyridin-3-yl)-1-methyl-5-((R)-3-methyl-morpholin-4-yl)-3-(1H-pyrazol-3-yl)-1H-pyrazolo[4,3-b]pyridine], the negative logarithm of the IC50 (pIC50) in data set [1] was 7.00 to 8.00; at ATR/ATRIP it was 8.44. The “hERG % effect @ conc” value in data set [2] (@ 10 μM) amounted to 5%. This molecule showed a negative logarithm of the Ki (pKi) in data set [2] below 5.00.
For the molecule `C[C@@H]1COCCN1c1cc(-c2ccnn2C)c2c(n1)c(-c1cc[nH]n1)nn2C` [Compound 61, (3R)-3-Methyl-4-[1-methyl-7-(1-methyl-1H-pyrazol-5-yl)-3-(1H-pyrazol-3-yl)-1H-pyrazolo[4,3-b]pyridin-5-yl]morpholine], the negative logarithm of the IC50 (pIC50) in data set [1] was 7.00 to 8.00; against ATR/ATRIP, 9.22. In addition, the “hERG % effect @ conc” value in data set [2] (@ 30 μM) is listed as −12%. In addition, the pKi in data set [2] is below 4.52.
`Cc1ccccc1-c1cc(N2CCOC[C@H]2C)nc2c(-c3ccn[nH]3)nn(C)c12` [Compound 49, (3R)-3-Methyl-4-[1-methyl-7-(2-methylphenyl)-3-(1H-pyrazol-5-yl)-1H-pyrazolo[4,3-b]pyridin-5-yl]morpholine]: the values for the pIC50 (in data set [1]; against ATR/ATRIP) were 7.00 to 8.00 and 8.74, respectively. Moreover, in data set [2] (@ 10 μM), the “hERG % effect @ conc” value was −18%. Further, in data set [2], the negative logarithm of the Ki (pKi) is below 5.00.

For the origin of these results see patent US12371430B2, “5-morpholin-4-yl-pyrazolo[4,3-b]pyridine derivatives” (Merck Patent GmbH, priority 2018, dated 2025).
